Counter-ions that a name gives are not always drawn.

For the test, the target named is T1, human V1a receptor (Homo sapiens, UniProt P37288).
T1 construct: expressed in transfected cells; host or cells: HEK293 cells, transiently transfected; membrane preparation
T1 sequence (P37288 whole entry): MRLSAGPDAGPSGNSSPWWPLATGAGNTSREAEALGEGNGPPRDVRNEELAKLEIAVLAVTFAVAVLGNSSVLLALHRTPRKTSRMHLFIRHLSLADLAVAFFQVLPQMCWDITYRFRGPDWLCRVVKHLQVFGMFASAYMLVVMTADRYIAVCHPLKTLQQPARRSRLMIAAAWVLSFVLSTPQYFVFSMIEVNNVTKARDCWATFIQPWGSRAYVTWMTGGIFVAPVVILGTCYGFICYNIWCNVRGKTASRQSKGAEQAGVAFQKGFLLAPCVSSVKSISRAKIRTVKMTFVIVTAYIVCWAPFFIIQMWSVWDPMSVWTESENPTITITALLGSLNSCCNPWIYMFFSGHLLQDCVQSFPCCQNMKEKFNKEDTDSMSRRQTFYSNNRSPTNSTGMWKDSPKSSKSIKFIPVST
Nature of the test: human V1a receptor binding studies (SPA, 3H-Vasopressin, membranes of transfected HEK293 cells). As to conditions: displacement of 3H-Vasopressin, HEK293 cell membranes, 1 h at room temperature; Ki by Cheng-Prussoff equation; read-out: pKi (hV1a) (converted). The method, then:
The human V1a receptor was cloned by RT-PCR from total human liver RNA. The coding sequence was subcloned in an expression vector after sequencing to confirm the identity of the amplified sequence. […] Cell membranes were prepared from HEK293 cells transiently transfected with the expression vector and grown in 20 liter fermenters with the following protocol.
50 g of cells are resuspended in 30 ml freshly prepared ice cold Lysis buffer (50 mM HEPES, 1 mM EDTA, 10 mM magnesium dichloride adjusted to pH=7.4+complete cocktail of protease inhibitor (Roche Diagnostics)). Homogenized with Polytron for 1 min and sonicated on ice for 2×2 minutes at 80% intensity (Vibracell sonicator). The preparation is centrifuged 20 min at 500 g at 4° C., the pellet is discarded and the supernatant centrifuged 1 hour at 43'000 g at 4° C. (19'000 rpm). The pellet is resuspended in 12.5 ml Lysis buffer+12.5 ml Sucrose 20% and homogenized using a Polytron for 1-2 min. The protein concentration is determined by the Bradford method and aliquots are stored at −80° C. until use. For binding studies 60 mg Yttrium silicate SPA beads (Amersham) are mixed with an aliquot of membrane in binding buffer (50 mM Tris, 120 mM sodium chloride, 5 mM potassium chloride, 2 mM Calcium dichloride, 10 mM magnesium dichloride) for 15 minutes with mixing. 50 μl of bead/membrane mixture is then added to each well of a 96 well plate, followed by 50 μl of 4 nM 3H-Vasopressin (American Radiolabeled Chemicals). For total binding measurement 100 μl of binding buffer are added to the respective wells, for non-specific binding 100 μl of 8.4 mM cold vasopressin and for compound testing 100 μl of a serial dilution of each compound in 2% dimethyl sulfoxide. The plate is incubated 1 h at room temperature, centrifuged […] at 1000 g and counted on a Packard Top-Count. Non-specific binding counts are subtracted from each well and data is normalized to the maximum specific binding set at 100%. To calculate an IC 50 the curve is fitted using a non-linear regression model (XLfit) and the Ki is calculated using the Cheng-Prussoff equation.
On to `CC(C)(C)OC(=O)N1Cc2cc(Cl)ccc2-n2c(nnc2[C@H]2CC[C@H](Oc3cccc(Cl)n3)CC2)C1` [Example 70, trans-8-Chloro-1-[4-(6-chloro-pyridin-2-yloxy)-cyclohexyl]-4H,6H-2,3,5,10b-tetraaza-benzo[e]azulene-5-carboxylic acid tert-butyl ester], for which the Ki was 9.12 nM. The result for `CN1Cc2cc(Cl)ccc2-n2c(nnc2[C@H]2CC[C@H](Oc3cccc(Cl)n3)CC2)C1` [Example 72, trans-8-Chloro-1-[4-(6-chloro-pyridin-2-yloxy)-cyclohexyl]-5-methyl-5,6-dihydro-4H-2,3,5,10b-tetraaza-benzo[e]azulene] reads 2.4 nM; that for `Clc1ccc(O[C@H]2CC[C@H](c3nnc4n3-c3ccc(Cl)cc3CNC4)CC2)nc1` [Example 74, trans-8-Chloro-1-[4-(5-chloro-pyridin-2-yloxy)-cyclohexyl]-5,6-dihydro-4H-2,3,5,10b-tetraaza-benzo[e]azulene hydrochloride], 11.2 nM; that for `CN1Cc2cc(Cl)ccc2-n2c(nnc2[C@H]2CC[C@H](Oc3ccc(Cl)cn3)CC2)C1` [Example 75, trans-8-Chloro-1-[4-(5-chloro-pyridin-2-yloxy)-cyclohexyl]-5-methyl-5,6-dihydro-4H-2,3,5,10b-tetraaza-benzo[e]azulene], 2.82 nM. The result for `CC(C)(C)OC(=O)N1Cc2cc(Cl)ccc2-n2c(nnc2[C@H]2CC[C@H](Oc3ncccn3)CC2)C1` [Example 79, trans-8-Chloro-1-[4-(pyrimidin-2-yloxy)-cyclohexyl]-4H,6H-2,3,5,10b-tetraaza-benzo[e]azulene-5-carboxylic acid tert-butyl ester] reads 2.57 nM.

Regarding `CC(C)(C)OC(=O)N1Cc2cc(Cl)ccc2-n2c(nnc2[C@H]2CC[C@@H](Oc3ncccn3)CC2)C1` [Example 80, cis-8-Chloro-1-[4-(pyrimidin-2-yloxy)-cyclohexyl]-4H,6H-2,3,5,10b-tetraaza-benzo[e]azulene-5-carboxylic acid tert-butyl ester], the Ki is 12.6 nM. With `CN1Cc2cc(Cl)ccc2-n2c(nnc2[C@H]2CC[C@H](Oc3ncccn3)CC2)C1` [Example 82, trans-8-Chloro-5-methyl-1-[4-(pyrimidin-2-yloxy)-cyclohexyl]-5,6-dihydro-4H-2,3,5,10b-tetraaza-benzo[e]azulene] the figure was 5.5 nM. The result for `CC(C)(C)OC(=O)N1Cc2cc(Cl)ccc2-n2c(nnc2[C@H]2CC[C@H](Oc3cnccn3)CC2)C1` [Example 83, trans-8-Chloro-1-[4-(pyrazin-2-yloxy)-cyclohexyl]-4H,6H-2,3,5,10b-tetraaza-benzo[e]azulene-5-carboxylic acid tert-butyl ester] reads 4.07 nM; that for `CN1Cc2cc(Cl)ccc2-n2c(nnc2[C@H]2CC[C@H](Oc3cnccn3)CC2)C1` [Example 85, trans-8-Chloro-5-methyl-1-[4-(pyrazin-2-yloxy)-cyclohexyl]-5,6-dihydro-4H-2,3,5,10b-tetraaza-benzo[e]azulene], 7.59 nM; that for `CC(C)(C)OC(=O)N1Cc2cc(Cl)ccc2-n2c(nnc2[C@H]2CC[C@H](Oc3ccncn3)CC2)C1` [Example 86, trans-8-Chloro-1-[4-(pyrimidin-4-yloxy)-cyclohexyl]-4H,6H-2,3,5,10b-tetraaza-benzo[e]azulene-5-carboxylic acid tert-butyl ester], 3.47 nM. With `CN1Cc2cc(Cl)ccc2-n2c(nnc2[C@H]2CC[C@H](Oc3ccncn3)CC2)C1` [Example 89, trans-8-Chloro-5-methyl-1-[4-(pyrimidin-4-yloxy)-cyclohexyl]-5,6-dihydro-4H-2,3,5,10b-tetraaza-benzo[e]azulene] the figure was 12.3 nM; with `CC(C)(C)OC(=O)N1Cc2cc(Cl)ccc2-n2c(nnc2[C@H]2CC[C@H](Oc3cccnn3)CC2)C1` [Example 92, trans-8-Chloro-1-[4-(pyridazin-3-yloxy)-cyclohexyl]-4H,6H-2,3,5,10b-tetraaza-benzo[e]azulene-5-carboxylic acid tert-butyl ester], 2.4 nM. `CC(C)(C)OC(=O)N1Cc2cc(Cl)ccc2-n2c(nnc2[C@H]2CC[C@@H](Oc3cccnn3)CC2)C1` [Example 93, cis-8-Chloro-1-[4-(pyridazin-3-yloxy)-cyclohexyl]-4H,6H-2,3,5,10b-tetraaza-benzo[e]azulene-5-carboxylic acid tert-butyl ester]: the Ki was 7.94 nM. For the molecule `CN1Cc2cc(Cl)ccc2-n2c(nnc2[C@H]2CC[C@H](Oc3cccnn3)CC2)C1` [Example 95, trans-8-Chloro-5-methyl-1-[4-(pyridazin-3-yloxy)-cyclohexyl]-5,6-dihydro-4H-2,3,5,10b-tetraaza-benzo[e]azulene], the Ki was 9.12 nM. The result for `Fc1cccnc1O[C@H]1CC[C@H](c2nnc3n2-c2ccc(Cl)cc2CNC3)CC1` [Example 98, trans-8-Chloro-1-[4-(3-fluoro-pyridin-2-yloxy)-cyclohexyl]-5,6-dihydro-4H-2,3,5,10b-tetraaza-benzo[e]azulene] reads 3.02 nM. Consider `Fc1ccc(O[C@H]2CC[C@H](c3nnc4n3-c3ccc(Cl)cc3CNC4)CC2)nc1` [Example 101, trans-8-Chloro-1-[4-(5-fluoro-pyridin-2-yloxy)-cyclohexyl]-5,6-dihydro-4H-2,3,5,10b-tetraaza-benzo[e]azulene], for which the Ki was 9.12 nM.

For the molecule `Cc1cccc(O[C@H]2CC[C@H](c3nnc4n3-c3ccc(Cl)cc3CNC4)CC2)n1` [Example 105, trans-8-Chloro-1-[4-(6-methyl-pyridin-2-yloxy)-cyclohexyl]-5,6-dihydro-4H-2,3,5,10b-tetraaza-benzo[e]azulene], the Ki is 5.75 nM. The result for `Clc1ccc2c(c1)CNCc1nnc([C@H]3CC[C@@H](Oc4ccccn4)CC3)n1-2` [Example 110, cis-8-Chloro-1-[4-(pyridin-2-yloxy)-cyclohexyl]-5,6-dihydro-4H-2,3,5,10b-tetraaza-benzo[e]azulene] reads 51.3 nM; that for `CN1Cc2cc(Cl)ccc2-n2c(nnc2[C@H]2CC[C@@H](Oc3ccccn3)CC2)C1` [Example 111, cis-8-Chloro-5-methyl-1-[4-(pyridin-2-yloxy)-cyclohexyl]-5,6-dihydro-4H-2,3,5,10b-tetraaza-benzo[e]azulene], 3.31 nM.
